{"source": "patent US10272056B2", "about": "“Treatment for mitochondrial diseases” (The George Washington University a Congressionally …, priority 2015, dated 2019)", "tested_on": "PC12-ND6 cells", "experiment": "Neurite outgrowth with sub-optimal NGF (10 ng/ml)", "format": "cell-based", "description": "FIG. 13A-13E are images from microscopy and graphs showing that the timing of NaBt treatment is critical for enhancing neuronal differentiation of PC12-ND6 cells upon sub-optimal neurotrophic cues. (A) Confocal micrographs of PC12-ND6 cells treated with dbcAMP alone or with NaBt (5 mM) in a simultaneous or sequential manner. Scale bar represents 5 μm. (B) Graph of neurite length. Mean±SEM (n=50 for each condition; compared to control (no NaBt) *p=0.0001 and **p=0.0009). (C) Confocal micrographs of PC12-ND6 cells treated with sub-optimal NGF concentration (10 ng/ml) alone or first NaBt (5 mM) in a simultaneous or sequential manner. Scale bar represents 10 μm. (D) Graph of average total neurite length. Mean±SEM (n=50 for each condition; compared to control *p=0.0001). (E) Graph of the frequency of total neurite length below and above 90 μm.\nNaBt-mediated modulation of the neuronal potential of PC12-ND6 cells in the context of sub-optimal NGF concentration (10 ng/ml) was further investigated. Transfected PC12-ND6 cells were first treated with NaBt (5 mM) for three days prior to NGF exposure (10 ng/ml). A time course analysis of neurite outgrowth was conducted during the first two days of NGF exposure by live-cell confocal microscopy. […] Such trend of neurite extension was maintained at day 2 of NGF exposure with NaBt-pre-treated or co-treated PC12-ND6 cells. Whether NaBt added concomitantly with NGF (10 ng/ml) could mediate increased neuritogenesis was also assessed.", "data": [{"compound": "CCCC(=O)[O-].[Na+]", "note": "[NaBt, sodium butyrate]", "values": [{"measurement": "neurite outgrowth, NaBt and NGF administered simultaneously", "setting": "NGF 10 ng/ml", "result": "No synergistic effect"}, {"measurement": "average total neurite length", "setting": "NaBt 5 mM three days pre-treatment, 24 hours NGF 10 ng/ml, control 60 μm", "result": 168, "unit": "μm"}, {"measurement": "percent of neurites longer than 90 μm", "setting": "NaBt pre-treated, NGF 10 ng/ml, control 16%", "result": 79, "unit": "%"}]}]}
